In brackets after ≈: the same amount, converted by molar mass.
Key:
Assay in all cases: ≥ marks a high value that may be exact or a test limit, other limits are often not marked, values filed in µg/mL are converted to µM
[1] = tested on: Staphylococcus aureus ATCC 6538P
[2] = tested on: Salmonella enterica subsp. enterica serovar Typhimurium ATCC 14028
[3] = tested on: Escherichia coli ATCC 25922
[4] = tested on: Pseudomonas aeruginosa ATCC 27853
[5] = tested on: Staphylococcus epidermidis ATCC 12228
[6] = tested on: Bacillus subtilis ATCC 6633
[7] = tested on: Shigella dysenteriae ATCC 9752
[8] = tested on: Klebsiella pneumoniae ATCC 10031
[9] = tested on: Micrococcus luteus ATCC 10240
[10] = tested on: Pseudomonas aeruginosa Ps4
[11] = tested on: Staphylococcus aureus ATCC 6538
[12] = tested on: Candida albicans ATCC 90028
[13] = tested on: Escherichia coli ATCC 8739
[14] = tested on: Staphylococcus aureus ATCC 43300
[15] = tested on: Staphylococcus aureus ATCC 25923

| Compound | MIC [1] [µM] | MIC [2] [µM] | MIC [3] [µM] | MIC [4] [µM] | MIC [5] [µM] | MIC [6] [µM] | MIC [7] [µM] | MIC [8] [µM] | MIC [9] [µM] | MIC [10] [µM] | MIC [13] [µM] | further results |
| --- | --- | --- | --- | --- | --- | --- | --- | --- | --- | --- | --- | --- |
| CC(C)C[C@H](NC(=O)[C@H](Cc1c[nH]c2ccccc12)NC(=O)[C@H](CCCCN)NC(=O)[C@H](Cc1ccccc1)NC(=O)[C@H](CC(C)C)NC(=O)[C@H](Cc1c[nH]c2ccccc12)NC(=O)[C@H](CCCCN)NC(=O)[C@H](CC(C)C)NC(=O)[C@@H](N)Cc1ccccc1)C(=O)N[C@@H](CCCCN)C(=O)N[C@@H](CCCCN)C(N)=O [FLKWLFKWLKK] | 8.13 (≈ 12.5 µg/mL) | 130 (≈ 200 µg/mL) | 32.5 (≈ 50 µg/mL) | 16.3 (≈ 25 µg/mL) | 8.13 (≈ 12.5 µg/mL) | 4.1 (≈ 6.3 µg/mL) | 16.3 (≈ 25 µg/mL) | ≥ 32.5 | 2.02 (≈ 3.1 µg/mL) |  |  |  |
| CC(C)C[C@H](NC(=O)[C@H](Cc1c[nH]c2ccccc12)NC(=O)[C@H](Cc1c[nH]c2ccccc12)NC(=O)[C@H](CC(C)C)NC(=O)[C@@H](N)Cc1ccccc1)C(=O)N[C@@H](Cc1ccccc1)C(=O)N[C@@H](CCCCN)C(=O)N[C@@H](Cc1c[nH]c2ccccc12)C(=O)N[C@@H](C)C(=O)N[C@@H](Cc1c[nH]c2ccccc12)C(=O)N[C@@H](CCCCN)C(N)=O [FLWWLFKWAWK] | 3.91 (≈ 6.3 µg/mL) | > 124 | > 124 | > 124 | 1.92 (≈ 3.1 µg/mL) | 1.92 (≈ 3.1 µg/mL) | ≥ 124 | ≥ 124 | 1.92 (≈ 3.1 µg/mL) |  |  |  |
| CC[C@H](C)[C@H](NC(=O)[C@H](CCCN=C(N)N)NC(=O)[C@@H](NC(=O)[C@H](CC(N)=O)NC(=O)[C@H](CCCN=C(N)N)NC(=O)[C@H](CCC(N)=O)NC(=O)[C@H](Cc1c[nH]c2ccccc12)NC(=O)[C@H](CCC(N)=O)NC(=O)[C@@H](N)Cc1ccccc1)[C@@H](C)CC)C(=O)N[C@@H](CCCN=C(N)N)C(=O)N[C@@H](CCCN=C(N)N)C(N)=O [FQWQRNIRIRR] |  |  |  |  |  |  |  |  |  | ≥ 159 |  |  |
| CC[C@H](C)[C@H](NC(=O)[C@H](CC(N)=O)NC(=O)[C@H](CCCN=C(N)N)NC(=O)[C@H](CCC(N)=O)NC(=O)[C@H](Cc1c[nH]c2ccccc12)NC(=O)[C@@H](N)Cc1ccccc1)C(=O)N[C@@H](CCCN=C(N)N)C(=O)N[C@@H](CCCCN)C(=O)N[C@H](C(=O)N[C@@H](CCCN=C(N)N)C(=O)N[C@@H](CCCN=C(N)N)C(=O)N[C@@H](CCCN=C(N)N)C(N)=O)C(C)C [FWQRNIRKVRRR] |  |  |  |  |  |  |  |  |  | ≥ 146 |  |  |
| CC[C@H](C)[C@H](NC(=O)[C@H](CC(N)=O)NC(=O)[C@H](CCCN=C(N)N)NC(=O)[C@H](CCC(N)=O)NC(=O)[C@H](Cc1c[nH]c2ccccc12)NC(=O)[C@@H](N)Cc1ccccc1)C(=O)N[C@@H](CCCN=C(N)N)C(=O)N[C@@H](CCCCN)C(=O)N[C@H](C(=O)N[C@@H](CCCN=C(N)N)C(=O)N[C@@H](CCCN=C(N)N)C(N)=O)C(C)C [FWQRNIRKVRR] |  |  |  |  |  |  |  |  |  | ≥ 160 |  |  |
| CC[C@H](C)[C@H](NC(=O)[C@H](CC(N)=O)NC(=O)[C@H](CCCN=C(N)N)NC(=O)[C@H](CCC(N)=O)NC(=O)[C@H](Cc1c[nH]c2ccccc12)NC(=O)[C@@H](N)Cc1ccccc1)C(=O)N[C@@H](Cc1ccc(O)cc1)C(=O)N[C@@H](CCCCN)C(=O)N[C@H](C(=O)N[C@@H](CCCN=C(N)N)C(N)=O)C(C)C [FWQRNIYKVR] |  |  |  |  |  |  |  |  |  | ≥ 177 |  |  |
| CC(C)[C@H](NC(=O)[C@H](CCCCN)NC(=O)[C@H](CCCN=C(N)N)NC(=O)[C@H](Cc1c[nH]c2ccccc12)NC(=O)[C@H](CC(N)=O)NC(=O)[C@H](CCCN=C(N)N)NC(=O)[C@H](CCC(N)=O)NC(=O)[C@H](Cc1c[nH]c2ccccc12)NC(=O)[C@@H](N)Cc1ccccc1)C(=O)N[C@@H](CCCN=C(N)N)C(N)=O [FWQRNWRKVR] |  |  |  |  |  |  |  |  |  | ≥ 169 |  |  |
| CC[C@H](C)[C@H](NC(=O)[C@H](CCCCN)NC(=O)[C@@H](NC(=O)[C@H](CO)NC(=O)[C@H](CC(=O)O)NC(=O)[C@H](Cc1c[nH]c2ccccc12)NC(=O)[C@H](CC(C)C)NC(=O)CN)[C@@H](C)CC)C(=O)N[C@@H](C)C(=O)NCC(=O)N[C@@H](CCCCN)C(=O)N[C@@H](CCCCN)C(=O)N[C@@H](CC(C)C)C(=O)N[C@@H](Cc1ccccc1)C(=O)N[C@H](C(=O)N[C@@H](CC(N)=O)C(=O)N[C@H](C(=O)N[C@@H](CC(C)C)C(=O)N[C@@H](CC(=O)O)C(=O)N[C@@H](CCCCN)C(=O)N[C@H](C(=O)N[C@@H](CCCN=C(N)N)C(=O)N[C@H]1CSSC[C@@H](C(=O)O)NC(=O)CNC(=O)CNC(=O)[C@H](C)NC(=O)[C@H](C(C)C)NC(=O)[C@H](CCCCN)NC1=O)[C@@H](C)CC)C(C)C)C(C)C [GLWDSIKIAGKKLFVNVLDKIRCKVAGGC] |  |  |  |  |  |  |  |  |  |  | 12.5 (≈ 39.1 µg/mL) | MIC [11]: 3.1 µM (≈ 9.71 µg/mL); MIC [12]: ≥ 100 µM; MIC [14]: 12.5 µM (≈ 39.1 µg/mL) |
| CC(C)C[C@H](NC(=O)[C@H](CC(C)C)NC(=O)[C@H](CCCCN)NC(=O)[C@H](CC(C)C)NC(=O)[C@H](CC(C)C)NC(=O)[C@H](Cc1c[nH]c2ccccc12)NC(=O)[C@H](CCCCN)NC(=O)[C@H](CC(C)C)NC(=O)[C@H](CC(C)C)NC(=O)[C@H](CCCCN)NC(=O)[C@H](CCCCN)NC(=O)[C@@H](N)CC(C)C)C(=O)N[C@@H](CCCCN)C(N)=O [LKKLLKWLLKLLK] | 7.63 (≈ 12.5 µg/mL) | > 122 | > 122 | > 122 | 7.63 (≈ 12.5 µg/mL) | 1.89 (≈ 3.1 µg/mL) | ≥ 122 | ≥ 122 | 1.89 (≈ 3.1 µg/mL) |  |  |  |
| CC(C)C[C@H](NC(=O)[C@H](CC(C)C)NC(=O)[C@H](CCCCN)NC(=O)[C@H](CC(C)C)NC(=O)[C@H](CC(C)C)NC(=O)[C@H](Cc1c[nH]c2ccccc12)NC(=O)[C@H](CCCCN)NC(=O)[C@H](CC(C)C)NC(=O)[C@H](CC(C)C)NC(=O)[C@H](CCCCN)NC(=O)[C@H](CC(C)C)NC(=O)[C@@H](N)CC(C)C)C(=O)N[C@@H](CCCCN)C(N)=O [LLKLLKWLLKLLK] | 15.4 (≈ 25 µg/mL) | > 123 | > 123 | > 123 | 30.8 (≈ 50 µg/mL) | 3.88 (≈ 6.3 µg/mL) | ≥ 123 | ≥ 123 | 3.88 (≈ 6.3 µg/mL) |  |  |  |
| CSCC[C@H](N)C(=O)N[C@@H](C)C(=O)N[C@@H](CCCN=C(N)N)C(=O)N[C@@H](CC(N)=O)C(=O)N[C@@H](CCCCN)C(=O)N1CCC[C@H]1C(=O)N[C@@H](CC(C)C)C(=O)NCC(=O)N[C@@H](CCCCN)C(=O)N[C@@H](CCCCN)C(=O)N[C@@H](CC(C)C)C(=O)N[C@@H](CCCN=C(N)N)C(=O)N[C@@H](CC(C)C)C(=O)N[C@@H](C)C(=O)N[C@@H](C)C(=O)N[C@@H](C)C(=O)N[C@@H](Cc1ccccc1)C(=O)N[C@@H](CCCCN)C(=O)O [MARNKPLGKKLRLAAAFK] |  |  |  |  |  |  |  |  |  |  | ≥ 127 | MIC [15]: > 127 µM |
| CSCC[C@H](N)C(=O)N[C@@H](CCCCN)C(=O)N[C@@H](CCCCN)C(=O)N[C@@H](CC(C)C)C(=O)N[C@@H](Cc1ccccc1)C(=O)N[C@@H](C)C(=O)N[C@@H](C)C(=O)N[C@@H](CC(C)C)C(=O)N[C@@H](C)C(=O)N[C@@H](CC(C)C)C(=O)N[C@@H](C)C(=O)N[C@@H](C)C(=O)N[C@H](C(=O)N[C@H](C(=O)N[C@@H](C)C(=O)N1CCC[C@H]1C(=O)N[C@H](C(=O)N[C@@H](Cc1c[nH]c2ccccc12)C(=O)O)C(C)C)C(C)C)C(C)C [MKKLFAALALAAVVAPVW] |  |  |  |  |  |  |  |  |  |  | ≥ 135 | MIC [15]: > 135 µM |
| CC(C)C[C@H](NC(=O)[C@H](CCCCN)NC(=O)[C@H](CCCCN)NC(=O)[C@H](CCCN=C(N)N)NC(=O)[C@H](CCCN=C(N)N)NC(=O)[C@H](CO)NC(=O)[C@H](CCC(N)=O)NC(=O)[C@H](Cc1ccc(O)cc1)NC(=O)[C@H](Cc1ccccc1)NC(=O)[C@H](CCC(N)=O)NC(=O)[C@H](CO)NC(=O)[C@H](CCC(=O)O)NC(=O)[C@H](CCCN=C(N)N)NC(=O)[C@@H](N)CC(N)=O)C(=O)N[C@@H](CO)C(=O)N[C@@H](CO)C(=O)N[C@@H](CCC(N)=O)C(=O)N[C@H](C(=O)O)C(C)C [NRESQFYQSRRKKLSSQV] |  |  |  |  |  |  |  |  |  |  | ≥ 114 | MIC [15]: > 114 µM |

Source: DBAASP
